What all share (format): cell-based, HEK293
The target in assay [1] is Sodium-dependent noradrenaline transporter (Homo sapiens, UniProt P23975). Kind of assay: Inhibition of norepinephrine uptake at human NET expressed in HEK cells.
Assay [2] concerns the target Sodium-dependent serotonin transporter (Homo sapiens, UniProt P31645).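 Note: test system: HEK cells expressing the human transporter, read-out is block of serotonin uptake.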
The target of assay [3] is Sodium-dependent dopamine transporter (Homo sapiens, UniProt Q01959). As to the kind of experiment: Inhibition of dopamine uptake at human DAT expressed in HEK cells.
Chain of Sodium-dependent dopamine transporter (Q01959 whole entry): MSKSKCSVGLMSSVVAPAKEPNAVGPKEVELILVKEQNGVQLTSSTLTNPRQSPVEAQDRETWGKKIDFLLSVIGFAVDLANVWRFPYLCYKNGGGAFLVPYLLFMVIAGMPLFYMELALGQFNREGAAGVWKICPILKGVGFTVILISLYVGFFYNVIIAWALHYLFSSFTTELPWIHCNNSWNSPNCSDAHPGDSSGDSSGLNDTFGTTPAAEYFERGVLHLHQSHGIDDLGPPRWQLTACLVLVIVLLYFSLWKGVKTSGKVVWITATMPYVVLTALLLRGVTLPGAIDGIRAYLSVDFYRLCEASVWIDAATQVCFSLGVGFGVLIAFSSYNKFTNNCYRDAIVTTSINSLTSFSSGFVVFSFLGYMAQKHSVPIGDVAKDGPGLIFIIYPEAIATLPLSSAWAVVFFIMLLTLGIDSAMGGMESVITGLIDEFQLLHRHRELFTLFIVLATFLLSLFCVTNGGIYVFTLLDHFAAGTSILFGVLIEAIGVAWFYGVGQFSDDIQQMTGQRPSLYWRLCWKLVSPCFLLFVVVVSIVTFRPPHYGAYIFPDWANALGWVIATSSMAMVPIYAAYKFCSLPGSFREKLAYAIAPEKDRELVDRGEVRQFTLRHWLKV

Chain of Sodium-dependent noradrenaline transporter (P23975 whole entry): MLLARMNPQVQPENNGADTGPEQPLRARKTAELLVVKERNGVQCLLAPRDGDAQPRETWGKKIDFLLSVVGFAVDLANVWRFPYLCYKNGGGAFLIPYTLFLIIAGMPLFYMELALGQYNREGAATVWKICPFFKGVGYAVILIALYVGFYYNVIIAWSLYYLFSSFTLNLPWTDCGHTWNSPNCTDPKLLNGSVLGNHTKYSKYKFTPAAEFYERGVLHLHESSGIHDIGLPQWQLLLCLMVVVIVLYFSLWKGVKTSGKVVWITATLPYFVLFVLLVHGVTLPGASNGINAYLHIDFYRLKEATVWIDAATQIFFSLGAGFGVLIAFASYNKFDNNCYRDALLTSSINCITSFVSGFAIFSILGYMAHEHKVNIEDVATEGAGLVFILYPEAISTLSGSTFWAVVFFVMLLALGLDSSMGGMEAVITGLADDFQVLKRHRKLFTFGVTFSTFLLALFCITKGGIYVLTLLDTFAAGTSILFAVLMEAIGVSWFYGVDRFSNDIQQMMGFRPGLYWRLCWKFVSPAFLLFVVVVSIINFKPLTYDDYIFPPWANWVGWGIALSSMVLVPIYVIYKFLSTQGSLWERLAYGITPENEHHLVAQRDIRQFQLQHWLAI
Chain of Sodium-dependent serotonin transporter (P31645 whole entry): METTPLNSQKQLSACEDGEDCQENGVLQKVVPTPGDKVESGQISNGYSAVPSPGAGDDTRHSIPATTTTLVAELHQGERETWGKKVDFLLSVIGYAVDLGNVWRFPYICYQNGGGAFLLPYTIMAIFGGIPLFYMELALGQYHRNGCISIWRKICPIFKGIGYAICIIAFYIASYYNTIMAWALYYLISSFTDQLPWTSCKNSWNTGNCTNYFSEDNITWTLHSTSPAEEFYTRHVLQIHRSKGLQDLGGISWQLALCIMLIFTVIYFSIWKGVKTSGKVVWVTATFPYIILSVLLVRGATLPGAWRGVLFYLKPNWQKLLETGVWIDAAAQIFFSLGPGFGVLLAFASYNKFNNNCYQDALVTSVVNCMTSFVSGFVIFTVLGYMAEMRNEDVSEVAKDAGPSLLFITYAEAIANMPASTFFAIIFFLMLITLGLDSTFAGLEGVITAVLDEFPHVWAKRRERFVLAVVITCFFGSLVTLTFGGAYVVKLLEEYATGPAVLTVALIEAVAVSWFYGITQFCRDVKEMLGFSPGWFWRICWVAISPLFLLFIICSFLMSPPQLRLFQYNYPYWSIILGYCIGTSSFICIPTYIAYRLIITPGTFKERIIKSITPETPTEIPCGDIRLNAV

For orientation: IC50 means the concentration at which inhibition is half-maximal. Lower therefore signals greater potency in that assay. In the case of `Cc1ccccc1O[C@H]1c2ccccc2OC[C@H]1CN(C)C`, the figures for the IC50 in assay [1], in assay [2] and in assay [3] were 0.7 µM, 1.1 µM and more than 10 µM, respectively.

For the compound `CNC[C@@H]1Cc2ccccc2[C@@H]1Oc1ccccc1C`, the IC50 was 0.01 µM in assay [1], 1.6 µM in assay [2] and 5.3 µM in assay [3].

With `CCOc1ccccc1O[C@H]1c2ccccc2CO[C@@H]1CNC`, the IC50 was 0.24 µM in assay [1], more than 10 µM in assay [2] and more than 10 µM in assay [3].

For the compound `CNC[C@H]1OCc2ccccc2[C@@H]1Oc1ccccc1SC`, the IC50 was found to be 0.045 µM in assay [1], 0.64 µM in assay [2] and 4 µM in assay [3].

`CNC[C@@H]1OCc2ccccc2[C@@H]1Oc1ccccc1SC`: the IC50 in assay [1] was 0.014 µM; in assay [2], 6 µM; in assay [3] it was more than 10 µM.

For `CN(C)C[C@@H]1Cc2ccccc2[C@@H]1Oc1ccc(C(F)(F)F)cc1`, the results for the IC50 in assay [1], in assay [2] and in assay [3] were 4.5 µM, 0.23 µM and more than 10 µM, respectively.

Regarding `CNC[C@H]1Cc2ccccc2[C@@H]1Oc1ccccc1C`, the IC50 in assay [1] is 0.035 µM; in assay [2], 1.5 µM; in assay [3], more than 10 µM.

In the case of `CNC[C@@H]1Cc2ccccc2[C@@H]1Oc1ccc(C(F)(F)F)cc1`, the IC50 is 0.88 µM in assay [1], 0.19 µM in assay [2] and more than 10 µM in assay [3].

As for `CNC[C@@H]1OCc2ccccc2[C@@H]1Oc1cccc(Cl)c1C`, the values for the IC50 in assay [1], in assay [2] and in assay [3] were 0.009 µM, 0.1 µM and 1.4 µM, respectively.

On to `CNC[C@@H]1OCc2ccccc2[C@@H]1Oc1ccc(F)cc1C`, for which the IC50 is 0.013 µM in assay [1], 0.15 µM in assay [2] and more than 10 µM in assay [3].

Regarding `CNC[C@@H]1OCc2ccccc2[C@@H]1Oc1cc(F)ccc1C`, the IC50 in assay [1] was 0.011 µM; in assay [2], 4 µM; in assay [3], more than 10 µM.

Consider `CNC[C@@H]1CSc2ccccc2[C@@H]1Oc1ccccc1Cl`, for which the IC50 in assay [1] is 0.145 µM; in assay [2], 3.6 µM; in assay [3], more than 10 µM.

Turning to `CNC[C@@H]1SCc2ccccc2[C@@H]1Oc1ccccc1Cl`, the IC50 in assay [1] was 0.14 µM; in assay [2] it was 2.7 µM; in assay [3], more than 10 µM.

Take `CCc1ccccc1O[C@H]1c2ccccc2CO[C@H]1CNC`: the IC50 in assay [1] is 0.015 µM; in assay [2], 4.5 µM; in assay [3], more than 10 µM.

As for `CNC[C@H]1CS(=O)(=O)c2ccccc2[C@@H]1Oc1ccccc1C`, the IC50 in assay [1] is 8 µM; in assay [2], 10 µM; in assay [3], more than 10 µM.

Consider `Cc1ccccc1O[C@H]1c2ccccc2C[C@H]1CN(C)C`, for which the IC50 in assay [1] is 5 µM; in assay [2], 6.5 µM; in assay [3], more than 10 µM.

Turning to `CCc1ccccc1O[C@H]1c2ccccc2CO[C@@H]1CNC`, the IC50 in assay [1] is 0.036 µM; in assay [2], 3 µM; in assay [3], more than 10 µM.

Consider `CNC[C@H]1CSc2ccccc2[C@@H]1Oc1ccccc1C`, for which the IC50 in assay [1] was 0.43 µM; in assay [2] it was 3.1 µM; in assay [3] it was 7.5 µM.

As for `CNC[C@@H]1Cc2ccccc2[C@@H]1Oc1cccc2ccccc12`, the values for the IC50 in assay [1], in assay [2] and in assay [3] were 0.03 µM, 0.14 µM and 5.7 µM, respectively.

For `CNC[C@H]1OCc2ccccc2[C@@H]1Oc1ccccc1OC`, the IC50 in assay [1] was 0.48 µM; in assay [2], more than 10 µM; in assay [3] it was more than 10 µM.

In the case of `CNC[C@H]1Cc2ccccc2[C@@H]1Oc1cccc2ccccc12`, the IC50 in assay [1] was determined as 0.4 µM; in assay [2], 0.09 µM; in assay [3], 4 µM.

For the compound `CNC[C@@H]1OCc2ccccc2[C@@H]1Oc1ccccc1F`, the IC50 in assay [1] is 0.075 µM; in assay [2] it was 3.1 µM; in assay [3], more than 10 µM.

`CCc1cccc(F)c1O[C@H]1c2ccccc2CO[C@H]1CNC`: the IC50 is 0.008 µM in assay [1], 1.4 µM in assay [2] and more than 10 µM in assay [3].

The values are drawn from ChEMBL document CHEMBL1156582, “Synthesis and structure-activity relationships of selective norepinephrine reuptake inhibitors (sNRI) with a heterocyclic ring constraint” (Bioorg Med Chem Lett, 2008).
